Where two headings read alike, the source gives them in different places.
Experiment: Phase I study CXR1002-001: plasma pharmacokinetics (LC-MS/MS)
Format: in vivo, human
Conditions: human, plasma, oral; for concentration at 528 h / concentration at 528 hr: 528 hr (Day 23); for concentration at 696 h: 696 hr (Day 30); for concentration at 840 h: 840 hr (Day 36)
Excerpt: PK samples, PD (fasting) samples, blood glucose, and blood triglyceride samples, were taken over a 6-week period.
Dose limiting toxicity (DLT) will be based on the toxicity assessments over the first 3-week period of the repeat dosing schedule. PK samples (single blood sample) were taken on the following basis: • Every 6 weeks during the repeat dosing phase • If dosing is interrupted or stopped, samples will be taken at intervals according to patient convenience • PK sampling for safety evaluation may take place at any time, as clinically indicated
Plasma samples were collected after the single 50 mg dose at the following timepoints: Pre-dose, and then 0.25, 0.5, 0.75, 1, 1.5, 2, 3, 4, 6, 24, 48, and 72 hours after administration and then once weekly at weeks 2, 3, 4, 5, and 6 (days 8, 15, 22, 29, and 36). For patients treated with the weekly repeat dose, plasma samples were collected at the following timepoints: Pre-dose and then 2, 3, 4 and 24 hours after administration for a total of 6 weeks. Thereafter a single sample was collected every 6 weeks for monitoring of exposure during long term treatment. Plasma samples were processed at site and stored at −80° C. prior to batch shipment to the analytical laboratory.

[1] = 100 mg, Patient 005 Dose 100 mg, read-out: Concentration
[2] = 100 mg, Patient 006 Dose 100 mg, read-out: Concentration
[3] = 100 mg, Patient 007 Dose 100 mg, read-out: Concentration
[4] = 200 mg, Patient 008 Dose 200 mg, read-out: Concentration
[5] = 200 mg, Patient 009 Dose 200 mg, read-out: Concentration

## O=C(O)C(F)(F)C(F)(F)C(F)(F)C(F)(F)C(F)(F)C(F)(F)C(F)(F)F [CXR1002]
100 mg, Patient 005 Dose 100 mg, 360 hr (Day 16), read-out: Concentration
  concentration at 360 h: 47.4 µM
100 mg, Patient 005 Dose 100 mg, 504 hr (Day 22), read-out: Concentration
  concentration at 504 h: 48.4 µM
100 mg, Patient 005 Dose 100 mg, 506 hr, read-out: Concentration
  concentration at 506 h: 84 µM
[1]
  concentration at 507 h: 74.4 µM
  concentration at 528 h: 57.9 µM
  concentration at 676 h: 82.7 µM
  concentration at 696 h: 78.8 µM
  concentration at 840 h: 99.4 µM
100 mg, Patient 005 Dose 100 mg, 508 hr, read-out: Concentration
  concentration at 508 h: 87.4 µM
100 mg, Patient 005 Dose 100 mg, 672 hr (Day 29), read-out: Concentration
  concentration at 672 h: 80.8 µM
100 mg, Patient 005 Dose 100 mg, 674 hr, read-out: Concentration
  concentration at 674 h: 99.7 µM
100 mg, Patient 005 Dose 100 mg, 675 hr, read-out: Concentration
  concentration at 675 h: 101 µM
100 mg, Patient 005 Dose 100 mg, 842 hr, read-out: Concentration
  concentration at 842 h: 80 µM
100 mg, Patient 005 Dose 100 mg, 843 hr, read-out: Concentration
  concentration at 843 h: 98.9 µM
100 mg, Patient 005 Dose 100 mg, 844 hr, read-out: Concentration
  concentration at 844 h: 91.4 µM
100 mg, Patient 005 Dose 100 mg, 864 hr (Day 37), read-out: Concentration
  concentration at 864 h: 109 µM
100 mg, Patient 005 Dose 100 mg, Day 92
  concentration at 92 day: 276 µM
100 mg, Patient 006 Dose 100 mg
  concentration at 0 h: 0.21 µM
[2]
  concentration at 2 h: 32.3 µM
  concentration at 3 h: 27.1 µM
  concentration at 170 h: 36.6 µM
  concentration at 338 h: 49.5 µM
  concentration at 339 h: 55.9 µM
  concentration at 507 hr: 83.8 µM
  concentration at 528 hr: 97 µM
  concentration at 696 h: 89.5 µM
  concentration at 840 h: 85.6 µM
100 mg, Patient 006 Dose 100 mg, 4 hr, read-out: Concentration
  concentration at 4 h: 24.6 µM
100 mg, Patient 006 Dose 100 mg, 24 hr (Day 2), read-out: Concentration
  concentration at 24 h: 28.2 µM
100 mg, Patient 006 Dose 100 mg, 168 hr (Day 8), read-out: Concentration
  concentration at 168 h: 26.2 µM
100 mg, Patient 006 Dose 100 mg, 171 hr, read-out: Concentration
  concentration at 171 hr: 41.1 µM
100 mg, Patient 006 Dose 100 mg, 172 hr, read-out: Concentration
  concentration at 172 hr: 47.5 µM
100 mg, Patient 006 Dose 100 mg, 192 hr (Day 9), read-out: Concentration
  concentration at 192 hr: 44.7 µM
100 mg, Patient 006 Dose 100 mg, 336 hr (Day 15), read-out: Concentration
  concentration at 336 h: 33.1 µM
100 mg, Patient 006 Dose 100 mg, 360 hr (Day 16), read-out: Concentration
  concentration at 360 h: 65.2 µM
100 mg, Patient 006 Dose 100 mg, 504 hr (Day 22), read-out: Concentration
  concentration at 504 h: 70.5 µM
100 mg, Patient 006 Dose 100 mg, 506 hr, read-out: Concentration
  concentration at 506 h: 76.4 µM
100 mg, Patient 006 Dose 100 mg, 672 hr (Day 29), read-out: Concentration
  concentration at 672 h: 86.9 µM
100 mg, Patient 006 Dose 100 mg, 674 hr, read-out: Concentration
  concentration at 674 h: 85.7 µM
100 mg, Patient 006 Dose 100 mg, 842 hr, read-out: Concentration
  concentration at 842 hr: 179 µM
100 mg, Patient 006 Dose 100 mg, 843 hr, read-out: Concentration
  concentration at 843 hr: 138 µM
100 mg, Patient 006 Dose 100 mg, 844 hr, read-out: Concentration
  concentration at 844 hr: 138 µM
100 mg, Patient 006 Dose 100 mg, 864 hr (Day 37), read-out: Concentration
  concentration at 864 hr: 123 µM
100 mg, Patient 007 Dose 100 mg
  concentration at 0 hr: 0 nM
[3]
  concentration at 2 hr: 30.9 µM
  concentration at 3 hr: 28.6 µM
  concentration at 338 hr: 52.8 µM
  concentration at 339 hr: 53.1 µM
  concentration at 507 hr: 65.8 µM
  concentration at 528 hr: 63.4 µM
100 mg, Patient 007 Dose 100 mg, 4 hr, read-out: Concentration
  concentration at 4 hr: 19.3 µM
100 mg, Patient 007 Dose 100 mg, 24 hr (Day 2), read-out: Concentration
  concentration at 24 hr: 17.3 µM
100 mg, Patient 007 Dose 100 mg, 168 hr (Day 8), read-out: Concentration
  concentration at 168 hr: 12.2 µM
100 mg, Patient 007 Dose 100 mg, 336 hr (Day 15), read-out: Concentration
  concentration at 336 hr: 19.2 µM
100 mg, Patient 007 Dose 100 mg, 340 hr, read-out: Concentration
  concentration at 340 hr: 55.8 µM
100 mg, Patient 007 Dose 100 mg, 360 hr (Day 16), read-out: Concentration
  concentration at 360 hr: 32 µM
100 mg, Patient 007 Dose 100 mg, 504 hr (Day 22), read-out: Concentration
  concentration at 504 hr: 39.7 µM
100 mg, Patient 007 Dose 100 mg, 506 hr, read-out: Concentration
  concentration at 506 hr: 53.1 µM
100 mg, Patient 007 Dose 100 mg, 508 hr, read-out: Concentration
  concentration at 508 hr: 73 µM
200 mg, Patient 008 Dose 200 mg
  concentration at 0 hr: 0 nM
[4]
  concentration at 2 hr: 114 µM
  concentration at 3 hr: 102 µM
  concentration at 170 h: 171 µM
  concentration at 338 hr: 147 µM
  concentration at 339 hr: 172 µM
  concentration at 507 h: 368 µM
  concentration at 528 h: 285 µM
  concentration at 676 h: 364 µM
  concentration at 696 h: 426 µM
  concentration at 840 h: 425 µM
200 mg, Patient 008 Dose 200 mg, 4 hr, read-out: Concentration
  concentration at 4 h: 81 µM
200 mg, Patient 008 Dose 200 mg, 24 hr (Day 2), read-out: Concentration
  concentration at 24 h: 70.4 µM
200 mg, Patient 008 Dose 200 mg, 168 hr (Day 8), read-out: Concentration
  concentration at 168 h: 64.6 µM
200 mg, Patient 008 Dose 200 mg, 171 hr, read-out: Concentration
  concentration at 171 h: 143 µM
200 mg, Patient 008 Dose 200 mg, 172 hr, read-out: Concentration
  concentration at 172 h: 130 µM
200 mg, Patient 008 Dose 200 mg, 192 hr (Day 9), read-out: Concentration
  concentration at 192 h: 110 µM
200 mg, Patient 008 Dose 200 mg, 336 hr (Day 15), read-out: Concentration
  concentration at 336 hr: 124 µM
200 mg, Patient 008 Dose 200 mg, 340 hr, read-out: Concentration
  concentration at 340 h: 192 µM
200 mg, Patient 008 Dose 200 mg, 360 hr (Day 16), read-out: Concentration
  concentration at 360 h: 211 µM
200 mg, Patient 008 Dose 200 mg, 504 hr (Day 22), read-out: Concentration
  concentration at 504 h: 277 µM
200 mg, Patient 008 Dose 200 mg, 506 hr, read-out: Concentration
  concentration at 506 h: 282 µM
200 mg, Patient 008 Dose 200 mg, 508 hr, read-out: Concentration
  concentration at 508 h: 281 µM
200 mg, Patient 008 Dose 200 mg, 672 hr (Day 29), read-out: Concentration
  concentration at 672 hr: 337 µM
200 mg, Patient 008 Dose 200 mg, 674 hr, read-out: Concentration
  concentration at 674 hr: 356 µM
200 mg, Patient 008 Dose 200 mg, 675 hr, read-out: Concentration
  concentration at 675 hr: 321 µM
200 mg, Patient 008 Dose 200 mg, 842 hr, read-out: Concentration
  concentration at 842 h: 361 µM
200 mg, Patient 008 Dose 200 mg, 843 hr, read-out: Concentration
  concentration at 843 h: 397 µM
200 mg, Patient 008 Dose 200 mg, 844 hr, read-out: Concentration
  concentration at 844 h: 414 µM
200 mg, Patient 008 Dose 200 mg, 864 hr (Day 37), read-out: Concentration
  concentration at 864 h: 354 µM
200 mg, Patient 009 Dose 200 mg
  concentration at 0 h: 0 µM
[5]
  concentration at 2 h: 93.4 µM
  concentration at 3 h: 61.2 µM
  concentration at 170 h: 149 µM
  concentration at 338 h: 161 µM
  concentration at 339 h: 167 µM
  concentration at 507 h: 296 µM
  concentration at 528 h: 242 µM
  concentration at 676 h: 358 µM
  concentration at 696 h: 338 µM
  concentration at 840 h: 399 µM
200 mg, Patient 009 Dose 200 mg, 4 hr, read-out: Concentration
  concentration at 4 h: 71.1 µM
200 mg, Patient 009 Dose 200 mg, 24 hr (Day 2), read-out: Concentration
  concentration at 24 h: 64.6 µM
200 mg, Patient 009 Dose 200 mg, 168 hr (Day 8), read-out: Concentration
  concentration at 168 h: 60.1 µM
200 mg, Patient 009 Dose 200 mg, 171 hr, read-out: Concentration
  concentration at 171 h: 170 µM
200 mg, Patient 009 Dose 200 mg, 172 hr, read-out: Concentration
  concentration at 172 h: 139 µM
200 mg, Patient 009 Dose 200 mg, 192 hr (Day 9), read-out: Concentration
  concentration at 192 h: 136 µM
200 mg, Patient 009 Dose 200 mg, 340 hr, read-out: Concentration
  concentration at 340 h: 153 µM
200 mg, Patient 009 Dose 200 mg, 360 hr (Day 16), read-out: Concentration
  concentration at 360 h: 218 µM
200 mg, Patient 009 Dose 200 mg, 504 hr (Day 22), read-out: Concentration
  concentration at 504 h: 253 µM
200 mg, Patient 009 Dose 200 mg, 506 hr, read-out: Concentration
  concentration at 506 h: 285 µM
200 mg, Patient 009 Dose 200 mg, 508 hr, read-out: Concentration
  concentration at 508 h: 362 µM
200 mg, Patient 009 Dose 200 mg, 672 hr (Day 29), read-out: Concentration
  concentration at 672 h: 251 µM
200 mg, Patient 009 Dose 200 mg, 674 hr, read-out: Concentration
  concentration at 674 h: 472 µM
200 mg, Patient 009 Dose 200 mg, 675 hr, read-out: Concentration
  concentration at 675 h: 261 µM
200 mg, Patient 009 Dose 200 mg, 842 hr, read-out: Concentration
  concentration at 842 h: 346 µM

Reference: patent US20130029928A1 (priority 2010, published 2013)
